Experimental data taken from ChEMBL document CHEMBL4219114, “Aralkyl selenoglycosides and related selenosugars in acetylated form activate protein phosphatase-1 and -2A” (Bioorg Med Chem, 2018).
Active and inactive are the calls of the source. No cut-off for these calls is given here.

Columns and labels:
[1] = Inhibition of rabbit skeletal muscle PP1 catalytic subunit at 19 to 395 uM using [32P]MLC20 as substrate pretreated for 10 mins followed by substrate addition measured after 10 mins by scintillation counting method; design: species or system Oryctolagus cuniculus
Oryctolagus cuniculus [2] = organism: Oryctolagus cuniculus; assay: Activation of rabbit skeletal muscle PP2A catalytic subunit at 19 to 395 uM using [32P]MLC20 as substrate pretreated for 10 mins followed by substrate addition measured after 10 mins by scintillation counting method relative to control
[3] = Inhibition of rabbit skeletal muscle PP2A catalytic subunit at 19 to 395 uM using [32P]MLC20 as substrate pretreated for 10 mins followed by substrate addition measured after 10 mins by scintillation counting method relative to control; design: species or system Oryctolagus cuniculus
Oryctolagus cuniculus [4] = organism: Oryctolagus cuniculus; assay: Activation of rabbit skeletal muscle PP1 catalytic subunit at 19 to 395 uM using [32P]MLC20 as substrate pretreated for 10 mins followed by substrate addition measured after 10 mins by scintillation counting method relative to control
HeLa [5] = assay: Cytotoxicity against human HeLa cells assessed as reduction in cell viability at >200 uM after 24 hrs by Alamar blue assay; type: functional, cell-based
[6] = molecular target: Serine/threonine-protein phosphatase PP1-beta catalytic subunit (Homo sapiens) (UniProt P62140); assay: Binding affinity to full length recombinant human N-terminal His6-tagged PP1cdelta expressed in Escherichia coli M15 assessed as inhibition of protein interaction with GST-tagged MYPT1 at 10 to 50 uM by surface plasmon resonance method
Serine/threonine-protein phosphatase PP1-beta catalytic subunit (Homo sapiens), sequence (P62140 whole entry, the tested form may be a part): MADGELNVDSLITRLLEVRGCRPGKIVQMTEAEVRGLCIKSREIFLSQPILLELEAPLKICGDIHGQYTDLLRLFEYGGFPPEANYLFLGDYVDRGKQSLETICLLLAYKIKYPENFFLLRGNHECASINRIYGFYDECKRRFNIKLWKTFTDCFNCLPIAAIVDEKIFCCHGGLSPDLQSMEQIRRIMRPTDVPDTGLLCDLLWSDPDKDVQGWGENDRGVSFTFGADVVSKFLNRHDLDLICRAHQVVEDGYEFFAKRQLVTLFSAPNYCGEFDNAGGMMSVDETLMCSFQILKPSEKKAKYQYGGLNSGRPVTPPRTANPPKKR

Oryctolagus cuniculus [7] = organism: Oryctolagus cuniculus; assay: Activation of rabbit skeletal muscle PP2A catalytic subunit at 395 uM using [32P]MLC20 as substrate pretreated for 10 mins followed by substrate addition measured after 10 mins in presence of 10 uM MYPT1 (23 to 38 residues) peptide by scintillation counting method relative to control
Oryctolagus cuniculus [8] = organism: Oryctolagus cuniculus; assay: Activation of rabbit skeletal muscle PP1 catalytic subunit at 395 uM using [32P]MLC20 as substrate pretreated for 10 mins followed by substrate addition measured after 10 mins in presence of 10 to 25 uM MYPT1 (23 to 38 residues) peptide by scintillation counting method
[9] = Activation of rabbit skeletal muscle PP1 catalytic subunit using [32P]MLC20 as substrate pretreated for 10 mins followed by substrate addition measured after 10 mins by scintillation counting method relative to control; design: species or system Oryctolagus cuniculus
HeLa [10] = assay: Activation of PP1 catalytic subunit/PP2A catalytic subunit in human HeLa cells at >100 uM using [32P]MLC20 as substrate pretreated for 1 hr followed by substrate addition measured after 30 secs by scintillation counting method; type: cell-based
[11] = Activation of rabbit skeletal muscle PP2A catalytic subunit using [32P]MLC20 as substrate pretreated for 10 mins followed by substrate addition measured after 10 mins by scintillation counting method relative to control; design: species or system Oryctolagus cuniculus
HeLa [12] = assay: Activation of PP1 catalytic subunit/PP2A catalytic subunit in human HeLa cells using [32P]MLC20 as substrate pretreated for 1 hr followed by substrate addition measured after 30 secs by scintillation counting method; type: cell-based
HeLa [13] = assay: Activation of PP1 catalytic subunit/PP2A catalytic subunit in human HeLa cells at 395 uM using [32P]MLC20 as substrate pretreated for 1 hr followed by substrate addition measured after 30 secs by scintillation counting method; type: cell-based

Row | EC50 [9] | EC50 [11] | SMILES | inhibition (INH) [1] | Activity (Oryctolagus cuniculus [2]) | inhibition (INH) [3] | Activity (Oryctolagus cuniculus [4]) | other results
1 |  |  | CC(=O)N[C@@H]1[C@@H](OC(C)=O)[C@H](OC(C)=O)[C@@H](COC(C)=O)O[C@H]1[Se]C(=O)c1ccc(C)cc1 | Active | Active | Active | Active | 
2 |  |  | CC(=O)OC[C@H]1O[C@@H]([Se]C(=O)c2ccc(Cl)cc2)[C@H](OC(C)=O)[C@@H](OC(C)=O)[C@@H]1OC(C)=O | Active | Active | Active | Active | 
3 |  |  | CC(=O)OC[C@H]1O[C@@H]([Se]Cc2ccccc2)[C@H](OC(C)=O)[C@@H](OC(C)=O)[C@@H]1OC(C)=O |  | Active |  | Active | Activity (HeLa [5]): Active
4 | 233 µM | 83.5 µM | CC(=O)OC[C@H]1O[C@@H]([Se]Cc2ccccc2C(F)(F)F)[C@H](OC(C)=O)[C@@H](OC(C)=O)[C@@H]1OC(C)=O |  | Active |  | Active | Activity (HeLa [5]): Active; Activity [6]: Active; Activity (Oryctolagus cuniculus [7]): Active; Activity (Oryctolagus cuniculus [8]): inactive; Activity (HeLa [10]): Active
5 |  |  | CC(=O)OC[C@H]1O[C@@H]([Se]C(=O)c2ccccc2)[C@H](OC(C)=O)[C@@H](OC(C)=O)[C@@H]1OC(C)=O | Active | inactive | Active |  | fold change (FC) (Oryctolagus cuniculus [4]): 2
6 |  |  | CC(=O)N[C@@H]1[C@@H](OC(C)=O)[C@H](OC(C)=O)[C@@H](COC(C)=O)O[C@H]1[Se]c1ccc([N+](=O)[O-])cn1 | Active | inactive | Active | inactive | 
7 |  |  | CC(=O)OC[C@H]1O[C@@H]([Se]C(=O)c2ccc(C)cc2)[C@H](OC(C)=O)[C@@H](OC(C)=O)[C@@H]1OC(C)=O | Active | Active | Active | Active | 
8 |  |  | OC[C@H]1O[C@@H]([Se]Cc2ccccc2)[C@H](O)[C@@H](O)[C@@H]1O |  | inactive |  | inactive | Activity (HeLa [12]): inactive; Activity (HeLa [5]): Active
9 | 291 µM | 84.8 µM | CC(=O)OC[C@H]1O[C@@H]([Se]c2ccccc2)[C@H](OC(C)=O)[C@@H](OC(C)=O)[C@@H]1OC(C)=O |  |  |  |  | fold change (FC) (Oryctolagus cuniculus [2]): 4; fold change (FC) (Oryctolagus cuniculus [4]): 4
10 |  |  | CC(=O)OC[C@H]1O[C@@H]([Se]Cc2ccc([N+](=O)[O-])cc2)[C@H](OC(C)=O)[C@@H](OC(C)=O)[C@@H]1OC(C)=O | Active | inactive |  | inactive | 
11 |  |  | CC(=O)OC[C@H]1O[C@@H]([Se]c2ccc([N+](=O)[O-])cn2)[C@H](OC(C)=O)[C@@H](OC(C)=O)[C@@H]1OC(C)=O | Active | inactive | Active | inactive | 
12 | 171 µM | 104 µM | CC(=O)OC[C@H]1O[C@@H]([Se]CCc2ccccc2)[C@H](OC(C)=O)[C@@H](OC(C)=O)[C@@H]1OC(C)=O |  |  |  |  | fold change (FC) (Oryctolagus cuniculus [2]): 4; fold change (FC) (Oryctolagus cuniculus [4]): 4
13 | 108 µM | 119 µM | CC(=O)OC[C@H]1O[C@@H]([Se]Cc2ccc(Br)cc2)[C@H](OC(C)=O)[C@@H](OC(C)=O)[C@@H]1OC(C)=O |  | Active |  | Active | Activity (HeLa [13]): Active; Activity [6]: Active; Activity (Oryctolagus cuniculus [7]): Active; Activity (Oryctolagus cuniculus [8]): inactive
14 |  |  | CC(=O)OC[C@H]1O[C@@H]([Se]c2ccc([N+](=O)[O-])cc2[N+](=O)[O-])[C@H](OC(C)=O)[C@@H](OC(C)=O)[C@@H]1OC(C)=O | Active | inactive | Active | inactive | 
15 | 222 µM | 119 µM | COc1ccc(C[Se][C@@H]2O[C@H](COC(C)=O)[C@@H](OC(C)=O)[C@H](OC(C)=O)[C@H]2OC(C)=O)cc1 |  | Active |  | Active | 
16 |  |  | OC[C@H]1O[C@@H]([Se]Cc2ccccc2C(F)(F)F)[C@H](O)[C@@H](O)[C@@H]1O |  | inactive |  | inactive | Activity (HeLa [12]): inactive; Activity (HeLa [5]): Active
